By EC50 is commonly meant the concentration needed to bring the measured effect to its halfway point.

The values below come from US20220081444A1, “6,7-DIHYDRO-4H-PYRAZOLO[1,5-A]PYRAZINE INDOLE-2-CARBOXAMIDES ACTIVE AGAINST THE HEPATITIS B VIRUS (HBV)” (AiCuris GmbH & Co. KG, priority 2018, published 2022).

Structures are written as SMILES. Structures can show the parent of a compound that is named as a salt.

The test system of this assay is HBV. As to conditions: Hepatitis B virus, HePAD38, 144 h, read-out: Cell Activity (EC50).
Take `O=C(c1cc2ccccc2[nH]1)N1CCn2nc(NC3CCOC3)cc2C1` (stereo not drawn) [Example 1, 5-(1H-indole-2-carbonyl)-N-(oxolan-3-yl)-4H,5H,6H,7H-pyrazolo[1,5-a]pyrazin-2-amine]: the EC50 was in the range of 1000 to 10000 nM.
Consider `O=C(c1cc2ccccc2[nH]1)N1CCn2nc(N[C@H]3CC[C@H](O)CC3)cc2C1` [Example 2, (1r,4r)-4-{[5-(1H-indole-2-carbonyl)-4H,5H,6H,7H-pyrazolo[1,5-a]pyrazin-2-yl]amino}cyclohexan-1-ol], for which the EC50 is < 1000 nM.
Regarding `O=C(c1cc2c(Cl)cccc2[nH]1)N1CCn2nc(NC3CCC(O)CC3)cc2C1` (stereo not drawn) [Example 3, 4-{[5-(4-chloro-1H-indole-2-carbonyl)-4H,5H,6H,7H-pyrazolo[1,5-a]pyrazin-2-yl]amino}cyclohexan-1-ol], the half-maximal effective concentration (EC50) is < 1000 nM.
`O=C(Nc1cc2n(n1)CCN(C(=O)c1cc3ccccc3[nH]1)C2)C1CNC1` [Example 4, N-[5-(1H-indole-2-carbonyl)-4H,5H,6H,7H-pyrazolo[1,5-a]pyrazin-2-yl]azetidine-3-carboxamide Hydrochloride]: the concentration giving a half-maximal response (EC50) lay within 1000 to 10000 nM.
Regarding `O=C(c1cc2ccccc2[nH]1)N1CCn2nc(NS(=O)(=O)C3CC3)cc2C1` [Example 5, N-[5-(1H-indole-2-carbonyl)-4H,5H,6H,7H-pyrazolo[1,5-a]pyrazin-2-yl]cyclopropanesulfonamide], the EC50 was < 1000 nM.
Take `CC(C)(C)OC(=O)N1CC(C(=O)Nc2cc3n(n2)CCN(C(=O)c2cc4ccccc4[nH]2)C3)C1` [Example 7, tert-butyl 3-{[5-(1H-indole-2-carbonyl)-4H,5H,6H,7H-pyrazolo[1,5-a]pyrazin-2-yl]carbamoyl}azetidine-1-carboxylate]: the EC50 is < 1000 nM.
For `CS(=O)(=O)Nc1cc2n(n1)CCN(C(=O)c1cc3ccccc3[nH]1)C2` [Example 8, N-[5-(1H-indole-2-carbonyl)-4H,5H,6H,7H-pyrazolo[1,5-a]pyrazin-2-yl]methanesulfonamide] the value was < 1000 nM; for `CC1Cn2nc(N)cc2CN1C(=O)c1cc2c(Cl)cccc2[nH]1` (stereo not drawn) [Example 9, 5-(4-chloro-1H-indole-2-carbonyl)-6-methyl-4H,5H,6H,7H-pyrazolo[15-a]pyrazin-2-amine], < 1000 nM.
As to `CC1Cn2nc(NC(=O)C3CCOC3)cc2CN1C(=O)c1cc2ccccc2[nH]1` (stereo not drawn) [Example 10, N-[5-(1H-indole-2-carbonyl)-6-methyl-4H,5H, 6H,7H-pyrazolo[1,5-a]pyrazin-2-yl]oxolane-3-carboxamide], the EC50 was < 1000 nM.
As for `CC1Cn2nc(NC(=O)C3CCOC3)cc2CN1C(=O)c1cc2c(Cl)cccc2[nH]1` (stereo not drawn) [Example 11, N-[5-(4-chloro-1H-indole-2-carbonyl)-6-methyl-4H,5H,6H,7H-pyrazolo[1,5-a]pyrazin-2-yl]oxolane-3-carboxamide], the EC50 was < 1000 nM.
On to `CC1Cn2nc(NCC3CCOC3)cc2CN1C(=O)c1cc2ccccc2[nH]1` (stereo not drawn) [Example 12, 5-(1H-indole-2-carbonyl)-6-methyl-N-[(oxolan-3-yl)methyl]-4H,5H,6H,7H-pyrazolo[1,5-a]pyrazin-2-amine], for which the EC50 was < 1000 nM.
With `CC1Cn2nc(NCC3CCOC3)cc2CN1C(=O)c1cc2c(Cl)cccc2[nH]1` (stereo not drawn) [Example 13, 5-(4-chloro-1H-indole-2-carbonyl)-6-methyl-N-[(oxolan-3-yl)methyl]-4H,5H,6H,7H-pyrazolo[1,5-a]pyrazin-2-amine], the concentration for a half-maximal effect (EC50) was < 1000 nM.
For `CC(=O)Nc1cc2n(n1)CCN(C(=O)c1cc3ccccc3[nH]1)C2` [Example 14, N-[5-(1H-indole-2-carbonyl)-4H,5H,6H,7H-pyrazolo[1,5-a]pyrazin-2-yl]acetamide] the value was < 1000 nM; for `O=C(c1cc2ccccc2[nH]1)N1CCn2nc(NCC3CCOCC3)cc2C1` [Example 15, 5-(1H-indole-2-carbonyl)-N-[(oxan-4-yl)methyl]-4H,5H,6H,7H-pyrazolo[1,5-a]pyrazin-2-amine], < 1000 nM.
For `CC1Cn2nc(N)cc2CN1C(=O)c1cc2ccccc2[nH]1` (stereo not drawn) [Example 16, 5-(1H-indole-2-carbonyl)-6-methyl-4H,5H,6H,7H-pyrazolo[1,5-a]pyrazin-2-amine] the value was < 1000 nM; for `CCc1cccc2[nH]c(C(=O)N3CCn4nc(NCC5CCOC5)cc4C3)cc12` (stereo not drawn) [Example 17, 5-(4-ethyl-1H-indole-2-carbonyl)-N-[(oxolan-3-yl)methyl]-4H,5H,6H,7H-pyrazolo[1,5-a]pyrazin-2-amine], < 1000 nM.
With `O=C(Nc1cc2n(n1)CCN(C(=O)c1cc3ccccc3[nH]1)C2)C1CCOCC1` [Example 18, N-[5-(1H-indole-2-carbonyl)-4H,5H,6H,7H-pyrazolo[1,5-a]pyrazin-2-yl]oxane-4-carboxamide], the 50% effective concentration (EC50) is < 1000 nM.
To `O=C(Nc1cc2n(n1)CCN(C(=O)c1cc3c(Cl)cccc3[nH]1)C2)C1CCOC1` (stereo not drawn) [Example 19, N-[5-(4-chloro-1H-indole-2-carbonyl)-4H,5H,6H,7H-pyrazolo[1,5-a]pyrazin-2-yl]oxolane-3-carboxamide] belongs < 1000 nM; to `O=C(Nc1cc2n(n1)CCN(C(=O)c1cc3c(Cl)c(F)ccc3[nH]1)C2)C1CCOC1` (stereo not drawn) [Example 20, N-[5-(4-chloro-5-fluoro-1H-indole-2-carbonyl)-4H,5H,6H,7H-pyrazolo[1,5-a]pyrazin-2-yl]oxolane-3-carboxamide], < 1000 nM.
In the case of `O=C(Nc1cc2n(n1)CCN(C(=O)c1cc3c(Cl)cc(F)cc3[nH]1)C2)C1CCOC1` (stereo not drawn) [Example 21, N-[5-(4-chloro-6-fluoro-1H-indole-2-carbonyl)-4H,5H,6H,7H-pyrazolo[1,5-a]pyrazin-2-yl]oxolane-3-carboxamide], the 50% effective concentration (EC50) is < 1000 nM.
With `O=C(Nc1cc2n(n1)CCN(C(=O)c1cc3c(F)cc(F)cc3[nH]1)C2)C1CCOC1` (stereo not drawn) [Example 22, N-[5-(4,6-difluoro-1H-indole-2-carbonyl)-4H,5H,6H,7H-pyrazolo[1,5-a]pyrazin-2-yl]oxolane-3-carboxamide], the EC50 is < 1000 nM.
For `CCc1cc(F)cc2[nH]c(C(=O)N3CCn4nc(NC(=O)C5CCOC5)cc4C3)cc12` (stereo not drawn) [Example 23, N-[5-(4-ethyl-6-fluoro-1H-indole-2-carbonyl)-4H,5H,6H,7H-pyrazolo[1,5-a]pyrazin-2-yl]oxolane-3-carboxamide] the value was < 1000 nM; for `CCc1cccc2[nH]c(C(=O)N3CCn4nc(NC(=O)C5CCOC5)cc4C3)cc12` (stereo not drawn) [Example 24, N-[5-(4-ethyl-1H-indole-2-carbonyl)-4H,5H,6H,7H-pyrazolo[1,5-a]pyrazin-2-yl]oxolane-3-carboxamide], < 1000 nM.
With `O=C(c1cc2c(Cl)cccc2[nH]1)N1CCn2nc(NCC3CCOC3)cc2C1` (stereo not drawn) [Example 26, 5-(4-chloro-1H-indole-2-carbonyl)-N-[(oxolan-3-yl)methyl]-4H,5H,6H,7H-pyrazolo[1,5-a]pyrazin-2-amine], the EC50 is < 1000 nM.
In the case of `O=C(c1cc2c(Cl)cc(F)cc2[nH]1)N1CCn2nc(NCC3CCOC3)cc2C1` (stereo not drawn) [Example 27, 5-(4-chloro-6-fluoro-1H-indole-2-carbonyl)-N-[(oxolan-3-yl)methyl]-4H,5H,6H,7H-pyrazolo[1,5-a]pyrazin-2-amine], the EC50 is < 1000 nM.
To `O=C(c1cc2c(F)cc(F)cc2[nH]1)N1CCn2nc(NCC3CCOC3)cc2C1` (stereo not drawn) [Example 28, 5-(4,6-difluoro-1H-indole-2-carbonyl)-N-[(oxolan-3-yl)methyl]-4H,5H,6H,7H-pyrazolo[1,5-a]pyrazin-2-amine] belongs < 1000 nM.
In the case of `O=C(Nc1cc2n(n1)CCN(C(=O)c1cc3ccccc3[nH]1)C2)C1CCOC1` (stereo not drawn) [Example 30, N-[5-(1H-indole-2-carbonyl)-4H,5H,6H,7H-pyrazolo[1,5-a]pyrazin-2-yl]oxolane-3-carboxamide], the EC50 is < 1000 nM.
For the compound `O=C(c1cc2ccccc2[nH]1)N1CCn2nc(NCC3CCOC3)cc2C1` (stereo not drawn) [Example 31, 5-(1H-indole-2-carbonyl)-N-[(oxolan-3-yl)methyl]-4H,5H,6H,7H-pyrazolo[1,5-a]pyrazin-2-amine], the concentration for a half-maximal effect (EC50) is < 1000 nM.
Consider `Nc1cc2n(n1)CCN(C(=O)c1cc3c(Cl)cccc3[nH]1)C2` [Example 32, 5-(4-chloro-1H-indole-2-carbonyl)-4H,5H,6H,7H-pyrazolo[1,5-a]pyrazin-2-amine], for which the EC50 is < 1000 nM.
To `Nc1cc2n(n1)CCN(C(=O)c1cc3c(F)cc(F)cc3[nH]1)C2` [Example 33, 5-(4,6-difluoro-1H-indole-2-carbonyl)-4H,5H,6H,7H-pyrazolo[1,5-a]pyrazin-2-amine] belongs < 1000 nM; to `Nc1cc2n(n1)CCN(C(=O)c1cc3ccccc3[nH]1)C2` [Example 34, 5-(1H-indole-2-carbonyl)-4H,5H, 6H,7H-pyrazolo[1,5-a]pyrazin-2-amine], < 1000 nM; to `O=C(c1cc2c(F)cc(F)cc2[nH]1)N1CCn2nc(NS(=O)(=O)C3CC3)cc2C1` [Example 35, N-[5-(4,6-difluoro-1H-indole-2-carbonyl)-4H,5H,6H,7H-pyrazolo[1,5-a]pyrazin-2-yl]cyclopropanesulfonamide], < 1000 nM.
Regarding `O=C(c1cc2c(Cl)c(F)ccc2[nH]1)N1CCn2nc(NS(=O)(=O)C3CC3)cc2C1` [Example 36, N-[5-(4-chloro-5-fluoro-1H-indole-2-carbonyl)-4H,5H,6H,7H-pyrazolo[1,5-a]pyrazin-2-yl]cyclopropanesulfonamide], the concentration for a half-maximal effect (EC50) is < 1000 nM.
In the case of `O=C(c1cc2c(Cl)cccc2[nH]1)N1CCn2nc(NS(=O)(=O)C3CC3)cc2C1` [Example 37, N-[5-(4-chloro-1H-indole-2-carbonyl)-4H,5H,6H,7H-pyrazolo[1,5-a]pyrazin-2-yl]cyclopropanesulfonamide], the EC50 was < 1000 nM.
For `O=C(c1cc2c(Cl)cc(F)cc2[nH]1)N1CCn2nc(NS(=O)(=O)C3CC3)cc2C1` [Example 38, N-[5-(4-chloro-6-fluoro-1H-indole-2-carbonyl)-4H,5H,6H,7H-pyrazolo[1,5-a]pyrazin-2-yl]cyclopropanesulfonamide] the value was < 1000 nM; for `CCc1cc(F)cc2[nH]c(C(=O)N3CCn4nc(NS(=O)(=O)C5CC5)cc4C3)cc12` [Example 39, N-[5-(4-ethyl-6-fluoro-1H-indole-2-carbonyl)-4H,5H,6H,7H-pyrazolo[1,5-a]pyrazin-2-yl]cyclopropanesulfonamide], < 1000 nM.
